Reference: ChEMBL document CHEMBL5360622, “Leucettinibs, a Class of DYRK/CLK Kinase Inhibitors Inspired by the Marine Sponge Natural Product Leucettamine B” (J Med Chem, 2023)

Tests used:
[1] = biological target: T1, Dual specificity tyrosine-phosphorylation-regulated kinase 3 (Homo sapiens, UniProt O43781)
T1 sequence (O43781 whole entry): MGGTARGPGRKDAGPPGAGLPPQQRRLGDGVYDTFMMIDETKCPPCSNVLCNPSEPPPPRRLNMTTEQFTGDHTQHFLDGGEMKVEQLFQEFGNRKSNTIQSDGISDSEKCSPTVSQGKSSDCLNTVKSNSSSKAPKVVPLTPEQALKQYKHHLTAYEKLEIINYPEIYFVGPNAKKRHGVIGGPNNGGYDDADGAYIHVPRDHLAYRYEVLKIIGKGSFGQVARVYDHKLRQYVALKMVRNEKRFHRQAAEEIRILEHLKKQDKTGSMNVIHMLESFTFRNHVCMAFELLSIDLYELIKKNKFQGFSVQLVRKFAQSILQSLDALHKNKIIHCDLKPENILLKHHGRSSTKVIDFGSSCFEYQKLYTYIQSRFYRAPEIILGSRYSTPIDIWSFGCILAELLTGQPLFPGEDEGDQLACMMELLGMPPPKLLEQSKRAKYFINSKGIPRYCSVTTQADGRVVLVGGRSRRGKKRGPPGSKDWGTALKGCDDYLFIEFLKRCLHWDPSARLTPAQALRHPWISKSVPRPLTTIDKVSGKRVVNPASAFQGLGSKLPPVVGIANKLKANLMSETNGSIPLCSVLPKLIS

[2] = biological target: Dual specificity tyrosine-phosphorylation-regulated kinase 1A (Homo sapiens, UniProt Q13627)
[3] = biological target: Cyclin-dependent kinase 5/CDK5 activator 1 (Homo sapiens, UniProt Q00535); format: cell-based, Sf9
[4] = biological target: Dual specificity protein kinase CLK4 (Homo sapiens, UniProt Q9HAZ1)
[5] = biological target: Casein kinase I isoform epsilon (Homo sapiens, UniProt P49674)
[6] = biological target: Dual specificity protein kinase CLK2 (Homo sapiens, UniProt P49760)
[7] = biological target: T2, Dual specificity tyrosine-phosphorylation-regulated kinase 2 (Homo sapiens, UniProt Q92630)
T2 sequence (Q92630 whole entry): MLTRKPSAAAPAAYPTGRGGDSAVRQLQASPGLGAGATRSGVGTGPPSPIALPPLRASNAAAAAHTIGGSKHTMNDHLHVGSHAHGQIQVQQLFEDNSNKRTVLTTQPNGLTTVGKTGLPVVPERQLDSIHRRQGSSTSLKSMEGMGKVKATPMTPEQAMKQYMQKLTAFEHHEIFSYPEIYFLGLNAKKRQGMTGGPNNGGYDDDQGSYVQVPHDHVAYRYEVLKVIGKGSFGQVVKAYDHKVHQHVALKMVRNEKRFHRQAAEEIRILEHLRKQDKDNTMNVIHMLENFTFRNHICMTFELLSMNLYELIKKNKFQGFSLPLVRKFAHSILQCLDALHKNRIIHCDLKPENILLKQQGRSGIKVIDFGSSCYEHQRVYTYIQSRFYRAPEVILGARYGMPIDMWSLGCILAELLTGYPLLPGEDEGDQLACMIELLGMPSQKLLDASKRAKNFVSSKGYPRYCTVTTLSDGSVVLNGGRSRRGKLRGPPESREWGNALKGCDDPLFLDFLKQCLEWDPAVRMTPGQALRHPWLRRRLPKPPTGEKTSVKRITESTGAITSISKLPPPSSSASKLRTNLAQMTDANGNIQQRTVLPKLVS

[8] = biological target: Glycogen synthase kinase-3 beta (Homo sapiens, UniProt P49841); format: cell-based, Sf9
[9] = biological target: Dual specificity protein kinase CLK3 (Homo sapiens, UniProt P49761); format: cell-based, Sf9
[10] = biological target: Dual specificity protein kinase CLK1 (Homo sapiens, UniProt P49759); format: cell-based, Sf9
[11] = biological target: T3, Dual specificity tyrosine-phosphorylation-regulated kinase 4 (Homo sapiens, UniProt Q9NR20)
T3 sequence (Q9NR20 whole entry): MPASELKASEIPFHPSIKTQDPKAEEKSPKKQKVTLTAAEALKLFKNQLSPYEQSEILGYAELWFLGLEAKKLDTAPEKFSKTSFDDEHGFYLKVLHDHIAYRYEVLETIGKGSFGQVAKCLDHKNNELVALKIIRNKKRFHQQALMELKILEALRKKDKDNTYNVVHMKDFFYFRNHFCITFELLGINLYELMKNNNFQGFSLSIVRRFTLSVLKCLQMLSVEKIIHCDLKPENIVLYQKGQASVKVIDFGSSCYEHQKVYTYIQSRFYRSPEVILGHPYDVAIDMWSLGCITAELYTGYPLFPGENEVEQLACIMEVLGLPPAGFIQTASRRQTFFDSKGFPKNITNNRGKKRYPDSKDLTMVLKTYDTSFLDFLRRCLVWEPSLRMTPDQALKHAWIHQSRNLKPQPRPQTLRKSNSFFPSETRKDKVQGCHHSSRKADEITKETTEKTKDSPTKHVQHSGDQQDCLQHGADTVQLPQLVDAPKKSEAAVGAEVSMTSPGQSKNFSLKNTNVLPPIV

Sequence of Dual specificity protein kinase CLK4 (Q9HAZ1 whole entry, canonical isoform): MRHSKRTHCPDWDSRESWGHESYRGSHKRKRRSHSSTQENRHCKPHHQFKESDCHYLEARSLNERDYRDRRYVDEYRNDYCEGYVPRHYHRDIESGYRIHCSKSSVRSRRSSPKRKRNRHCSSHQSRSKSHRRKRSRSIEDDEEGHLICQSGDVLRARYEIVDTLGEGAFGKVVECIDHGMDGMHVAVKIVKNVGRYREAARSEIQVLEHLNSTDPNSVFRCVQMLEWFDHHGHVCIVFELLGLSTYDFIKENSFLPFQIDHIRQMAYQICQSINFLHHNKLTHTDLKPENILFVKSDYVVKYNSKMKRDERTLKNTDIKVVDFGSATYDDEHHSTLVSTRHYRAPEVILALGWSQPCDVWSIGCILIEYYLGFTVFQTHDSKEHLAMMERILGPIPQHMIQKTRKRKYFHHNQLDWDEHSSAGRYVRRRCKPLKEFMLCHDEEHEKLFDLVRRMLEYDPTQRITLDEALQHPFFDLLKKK
Sequence of Dual specificity protein kinase CLK1 (P49759 whole entry): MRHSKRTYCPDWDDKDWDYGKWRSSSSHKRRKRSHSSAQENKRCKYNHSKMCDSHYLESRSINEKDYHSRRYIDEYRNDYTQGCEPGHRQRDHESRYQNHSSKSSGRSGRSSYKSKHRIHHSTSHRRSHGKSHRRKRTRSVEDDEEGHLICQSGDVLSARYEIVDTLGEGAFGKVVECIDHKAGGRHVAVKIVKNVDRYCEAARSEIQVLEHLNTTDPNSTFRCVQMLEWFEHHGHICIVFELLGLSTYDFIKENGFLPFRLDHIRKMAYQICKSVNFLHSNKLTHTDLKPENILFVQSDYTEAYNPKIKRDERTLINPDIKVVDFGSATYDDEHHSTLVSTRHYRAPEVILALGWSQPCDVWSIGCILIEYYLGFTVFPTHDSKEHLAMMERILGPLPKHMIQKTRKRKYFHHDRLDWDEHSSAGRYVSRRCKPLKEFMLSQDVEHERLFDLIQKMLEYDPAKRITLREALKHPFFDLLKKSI
Sequence of Dual specificity protein kinase CLK2 (P49760 whole entry): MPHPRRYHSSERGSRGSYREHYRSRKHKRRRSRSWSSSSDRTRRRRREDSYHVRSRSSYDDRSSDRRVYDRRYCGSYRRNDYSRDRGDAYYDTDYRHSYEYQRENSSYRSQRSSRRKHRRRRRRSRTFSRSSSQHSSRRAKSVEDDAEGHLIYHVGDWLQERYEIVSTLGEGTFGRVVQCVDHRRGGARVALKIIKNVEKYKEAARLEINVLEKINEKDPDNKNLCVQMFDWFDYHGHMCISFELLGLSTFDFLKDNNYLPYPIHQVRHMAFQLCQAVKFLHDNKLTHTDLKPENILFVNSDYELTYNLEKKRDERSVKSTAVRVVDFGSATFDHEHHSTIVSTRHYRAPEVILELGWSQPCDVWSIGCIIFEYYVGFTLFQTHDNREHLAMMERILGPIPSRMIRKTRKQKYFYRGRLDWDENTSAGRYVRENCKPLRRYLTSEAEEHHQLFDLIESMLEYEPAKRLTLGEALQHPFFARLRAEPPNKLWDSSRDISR
Sequence of Dual specificity protein kinase CLK3 (P49761 whole entry): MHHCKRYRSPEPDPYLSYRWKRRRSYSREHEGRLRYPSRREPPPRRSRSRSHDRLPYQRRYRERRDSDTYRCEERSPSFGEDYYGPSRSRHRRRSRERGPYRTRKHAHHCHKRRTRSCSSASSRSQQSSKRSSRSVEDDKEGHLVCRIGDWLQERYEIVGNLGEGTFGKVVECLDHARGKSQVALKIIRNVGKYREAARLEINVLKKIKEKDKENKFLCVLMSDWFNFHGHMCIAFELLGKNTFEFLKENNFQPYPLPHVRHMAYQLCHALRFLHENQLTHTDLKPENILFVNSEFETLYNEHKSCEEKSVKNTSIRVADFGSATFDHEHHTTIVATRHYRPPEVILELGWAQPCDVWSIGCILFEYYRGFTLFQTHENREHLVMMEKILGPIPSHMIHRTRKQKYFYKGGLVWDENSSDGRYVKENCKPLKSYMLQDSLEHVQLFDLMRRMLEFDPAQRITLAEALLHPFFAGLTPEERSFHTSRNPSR
Sequence of Casein kinase I isoform epsilon (P49674 whole entry, canonical isoform): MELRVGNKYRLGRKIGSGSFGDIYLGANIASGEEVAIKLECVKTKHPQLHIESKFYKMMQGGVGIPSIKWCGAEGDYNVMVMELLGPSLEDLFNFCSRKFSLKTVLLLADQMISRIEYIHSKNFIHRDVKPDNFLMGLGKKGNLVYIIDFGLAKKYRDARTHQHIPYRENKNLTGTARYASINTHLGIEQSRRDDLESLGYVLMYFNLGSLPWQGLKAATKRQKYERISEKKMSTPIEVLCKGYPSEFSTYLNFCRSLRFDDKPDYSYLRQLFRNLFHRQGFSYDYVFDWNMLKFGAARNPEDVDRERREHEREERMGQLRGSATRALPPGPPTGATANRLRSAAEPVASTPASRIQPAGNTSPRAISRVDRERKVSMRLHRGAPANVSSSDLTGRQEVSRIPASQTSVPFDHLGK
Sequence of Cyclin-dependent kinase 5/CDK5 activator 1 (Q00535 whole entry): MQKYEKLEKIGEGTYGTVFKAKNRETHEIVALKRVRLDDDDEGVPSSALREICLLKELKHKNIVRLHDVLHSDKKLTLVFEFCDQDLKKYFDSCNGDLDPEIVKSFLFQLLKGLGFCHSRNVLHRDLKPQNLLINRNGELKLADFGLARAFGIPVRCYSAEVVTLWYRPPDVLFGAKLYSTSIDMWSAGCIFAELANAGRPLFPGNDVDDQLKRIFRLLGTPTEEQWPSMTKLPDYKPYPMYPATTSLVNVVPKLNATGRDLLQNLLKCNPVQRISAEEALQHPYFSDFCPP
Sequence of Cyclin-dependent kinase 5/CDK5 activator 1 (Q15078 whole entry, further chain): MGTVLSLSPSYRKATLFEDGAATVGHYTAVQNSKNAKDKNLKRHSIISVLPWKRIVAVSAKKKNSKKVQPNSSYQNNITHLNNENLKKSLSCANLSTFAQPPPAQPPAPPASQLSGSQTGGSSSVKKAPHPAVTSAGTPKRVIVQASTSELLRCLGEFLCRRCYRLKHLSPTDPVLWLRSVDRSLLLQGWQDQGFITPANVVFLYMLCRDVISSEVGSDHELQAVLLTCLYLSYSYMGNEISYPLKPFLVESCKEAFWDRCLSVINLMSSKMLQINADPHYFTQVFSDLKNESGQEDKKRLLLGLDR
Sequence of Glycogen synthase kinase-3 beta (P49841 whole entry): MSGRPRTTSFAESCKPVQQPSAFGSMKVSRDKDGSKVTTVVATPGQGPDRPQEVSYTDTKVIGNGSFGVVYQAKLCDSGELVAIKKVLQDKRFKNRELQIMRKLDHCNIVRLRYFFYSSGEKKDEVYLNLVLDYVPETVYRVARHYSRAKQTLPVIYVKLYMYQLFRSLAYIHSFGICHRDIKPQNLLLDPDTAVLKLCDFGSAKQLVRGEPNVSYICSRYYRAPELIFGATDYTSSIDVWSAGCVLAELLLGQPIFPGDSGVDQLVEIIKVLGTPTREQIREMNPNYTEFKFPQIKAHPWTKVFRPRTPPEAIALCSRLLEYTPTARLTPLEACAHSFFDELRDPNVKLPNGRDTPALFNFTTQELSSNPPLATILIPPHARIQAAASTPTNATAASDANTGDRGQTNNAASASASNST

Structure (SMILES) | IC50 [1] [µM] | IC50 [2] [µM] | IC50 [3] [µM] | IC50 [4] [µM] | IC50 [5] [µM] | IC50 [6] [µM] | IC50 [7] [µM] | IC50 [8] [µM] | IC50 [9] [µM] | IC50 [10] [µM] | IC50 [11] [µM]
Cn1cnc2cc(/C=C3\N=C(NC4CCCCC4)NC3=O)ccc21 | > 10 | > 10 | > 10 | > 10 | > 10 | > 10 | > 10 | > 10 | > 10 | > 10 | > 10
Cn1ccc2cc(/C=C3\N=C(NC4CCCCCC4)NC3=O)ccc21 | > 10 | > 10 | > 10 | > 10 | > 10 | > 10 | > 10 | > 10 | > 10 | > 10 | > 10
Cn1cnc2cc(/C=C3\N=C(NC45CC6CC(CC(C6)C4)C5)NC3=O)ccc21 | > 10 | > 10 | > 10 | > 10 | > 10 | > 10 | > 10 | > 10 | > 10 | > 10 | > 10
O=C1NC(NC2CCCCCC2)=N/C1=C\c1ccc2[nH]ccc2c1 | > 10 | > 10 | > 10 | > 10 | > 10 | > 10 | > 10 | > 10 | > 10 | > 10 | > 10
O=C1NC(NC23CC4CC(CC(C4)C2)C3)=N/C1=C\c1ccc2[nH]ccc2c1 | > 10 | 0.957 | > 10 | 2.55 | > 10 | 3.61 | > 10 | > 10 | > 10 | 8.83 | > 10
Cn1cnc2cc(/C=C3\N=C(NC4CCCCCC4)NC3=O)ccc21 | > 10 | > 10 | > 10 | > 10 | > 10 | > 10 | > 10 | > 10 | > 10 | > 10 | > 10
O=C1NC(NC2CCCCC2)=N/C1=C\c1ccc2[nH]ccc2c1 | > 10 | > 10 | > 10 | > 10 | > 10 | > 10 | > 10 | > 10 | > 10 | > 10 | > 10
O=C1NC(NC2CCCCC2)=N/C1=C\c1ccc2c(c1)CCO2 | – | 0.237 | > 10 | 0.052 | > 10 | 1.25 | 3.39 | > 10 | 5.38 | 0.104 | 2.99
Cn1ccc2cc(/C=C3\N=C(NC45CC6CC(CC(C6)C4)C5)NC3=O)ccc21 | > 10 | > 10 | > 10 | > 10 | > 10 | > 10 | > 10 | > 10 | > 10 | > 10 | > 10
Cn1ccc2cc(/C=C3\N=C(NC4CCCCC4)NC3=O)ccc21 | > 10 | > 10 | > 10 | > 10 | > 10 | > 10 | > 10 | > 10 | > 10 | > 10 | > 10

These reach a lower IC50 [2]. Values come first.

IC50 [1] [µM] | IC50 [2] [µM] | IC50 [3] [µM] | IC50 [4] [µM] | IC50 [5] [µM] | IC50 [6] [µM] | IC50 [7] [µM] | IC50 [8] [µM] | IC50 [9] [µM] | IC50 [10] [µM] | IC50 [11] [µM] | Structure (SMILES)
2.08 | 0.074 | > 10 | 0.043 | > 10 | 0.955 | – | 8.4 | 4.28 | 0.092 | 1.32 | O=C1NC(NC2CCCCC2)=N/C1=C\c1ccc2c(c1)OCO2
3.19 | 0.047 | > 10 | 0.02 | > 10 | 0.826 | 5.08 | > 10 | 4.44 | 0.042 | 1.23 | O=C1NC(NC2CCCCCC2)=N/C1=C\c1ccc2c(c1)OCO2
– | 0.037 | > 10 | 0.43 | > 10 | > 10 | 1.58 | > 10 | 0.381 | 1.24 | 6.09 | Cn1ncc2cc(/C=C3\N=C(NC4CCCCCC4)NC3=O)ccc21
0.01 | 0.014 | – | 0.012 | – | 0.03 | 0.015 | 0.2 | 0.7 | 0.012 | – | COc1ccc(/C=C2\N=C(Nc3ccc(N4CCN(C)CC4)cc3)NC2=O)cc1O
1.14 | 0.013 | > 10 | 0.011 | > 10 | 0.174 | 0.566 | 3.02 | 0.285 | 0.018 | 0.617 | O=C1NC(NC2CCCCCC2)=N/C1=C\c1ccc2ncoc2c1
0.074 | 0.01 | > 10 | 0.004 | – | 0.014 | 0.26 | 7.77 | 1.08 | 0.005 | 0.663 | O=C1NC(NC23CC4CC(CC(C4)C2)C3)=N/C1=C\c1ccc2[nH]ncc2c1
1.23 | 0.007 | > 10 | 0.007 | > 10 | 0.086 | 0.413 | 5.14 | 0.284 | 0.02 | 2.29 | COC(=O)[C@H](C)NC1=N/C(=C\c2ccc3ncsc3c2)C(=O)N1
0.068 | 0.007 | 0.65 | 0.003 | > 10 | 0.003 | 0.095 | 1.54 | 1.06 | 0.009 | 0.08 | Cn1cnc2ccc(/C=C3\N=C(NC45CC6CC(CC(C6)C4)C5)NC3=O)cc21
0.014 | 0.007 | – | 0.019 | – | 0.067 | 0.008 | 0.12 | 1.1 | 0.017 | – | CN1CCN(c2ccc(NC3=N/C(=C\c4ccc5c(c4)OCCO5)C(=O)N3)cc2)CC1
0.002 | 0.001 | 0.025 | 0.004 | 0.062 | – | 0.01 | 0.094 | 0.09 | 0.011 | 0.146 | O=C1NC(NC23CC4(F)CC(F)(CC(F)(C4)C2)C3)=N/C1=C\c1ccc2ncsc2c1
0.038 | 0.001 | 0.28 | 0.003 | > 10 | – | 0.062 | 0.202 | 8.53 | 0.008 | – | O=C1NC(NC23CC4CC(CC(C4)C2)C3)=N/C1=C\c1ccc2ncoc2c1
